Reference: US8129527B2, “Analogs of dehydrophenylahistins and their therapeutic use” (Nereus Pharmacuticals, Inc., priority 2006, dated 2012)
Where two headings read alike, the source gives them in different places.

Legend:
[1] = target: panel of 60 different kinases; experiment: Broad kinase screen, primary screen; assay type: biochemical; conditions: 10 μM compound, ATP 10 μM, 60 kinases
[2] = tested on: P388 murine leukemia cells; experiment: Cytotoxic effect in P388 cells; assay type: cell-based
Text: The cytotoxic effects of phenylahistin, dehydrophenylahistin and various derivatives of dehydrophenylahistin were examined in P388 murine leukemia cells, HT-29 human colon cells, and PC-3 prostatic adenocarcinoma cells.

[3] = tested on: HuVEC; experiment: Action on microtubule function, α-tubulin staining; conditions: 2 μM, thirty minutes exposure
[4] = tested on: DU-145 human prostate tumor; experiment: DU-145 Human Prostate Tumor Xenograft Model; assay type: in vivo, nude mice; conditions: KPU-2 plus taxotere, treatment Days 20-27
Procedure: When the tumors reached 5 mm×5 mm (at about 13-17 days) the animals were matched into treatment and control groups.
In this model unless otherwise noted for the individual study, test compounds were administered via the intraperitoneal route on Days 1, 3, 5, 8 and 11 (q3dx5); taxotere was administered intravenously on Days 1, 3 and 5 (q2dx3).

[5] = tested on: PC-3 prostatic adenocarcinoma cells; experiment: Tumor cytotoxicity assay, resazurin fluorescence, 48 h (Example 6); assay type: cell-based, human; conditions: read-out: EC50 (nM) PC-3
Procedure: 10× concentrated serial dilutions of the two compounds were prepared in appropriate culture medium for final concentrations ranging from 2.0×10^−5 M to 2.0×10^−10 M. Ten μl volumes of the 10× serial dilutions were added to the test wells in triplicate and the plates returned to the incubator for 48 hours.
Following 48 hours of drug exposure 10 μl of 0.2 mg/ml resazurin (obtained from Sigma-Aldrich Chemical Co.) in Mg^2+, Ca^2+ free PBS was added to each well and the plates were returned to the incubator for 3-4 hours. […] Resazurin dye without cells was used to determine the background, which was subtracted from the data for all experimental wells. The data were analyzed using Prism software (GraphPad Software).
PC-3, a human prostate adenocarcinoma, was maintained in F12K complete medium (F12K medium supplemented with 10% FBS; 2 mM Glutamine; 1% HEPES; and Pen/Strep at 100 IU/ml and 100 µg/ml, respectively).

[6] = tested on: A549 human non small cell lung tumor; experiment: A549 Human Lung Tumor Xenograft Model; assay type: in vivo, nude mice; conditions: KPU-2 7.5 mg/kg ip qdx5 with taxotere
Procedure: Animals used were (exceptions are indicated for individual studies): female nude mice (nu/nu) between 5 and 6 weeks of age (˜20 g, Harlan); group size was 9-10 mice per group unless otherwise indicated.
Selected novel compounds were administered as monotherapy via the intraperitoneal (i.p.) route at the doses indicated for the individual study; for the combination studies the selected reference chemotherapy agents were injected 15-30 min prior to the compound.
Saline dilutions are used to achieve the injection concentrations used for the reference compounds.
Animals were implanted s.c. by trocar with fragments of A549 tumors harvested from s.c. growing tumors in nude mice hosts. When the tumor size reached 5 mm×5 mm (about 10-17 days) the animals were matched into treatment and control groups.

[7] = tested on: PARP in Jurkat cells; experiment: Cleavage of poly(ADP-ribose)polymerase (PARP), western blotting; assay type: cell-based, human; conditions: 100 nM, 10 hours after exposure
Text: In order to assess the ability of these compounds to induce apoptosis in Jurkat cells, cleavage of poly(ADP-ribose)polymerase (PARP) was monitored. […] The cleavage of PARP generates a stable 89 kDa product, and this process can be easily monitored by western blotting.

[8] = tested on: Jurkat cells (human T cell leukemia line); experiment: DNA fragmentation (DNA laddering); assay type: cell-based
Text: A late stage characteristic of apoptosis is internucleosomal DNA cleavage that results in a distinctive ladder pattern that can be visualized by gel electrophoresis.

[9] = tested on: human prostate tumor cells; experiment: Induction of apoptosis, morphological changes; assay type: cell-based
Text: Apoptosis and its dysregulation play an important role in oncology; the selective induction of the programmed cell death cycle in tumor cells is the goal of many chemotherapeutic drug discovery programs.
The characteristic signs of apoptotic cell death include cell membrane blebbing, disruption of nuclei, cell shrinkage and condensation and finally cell death, very distinctive from necrotic cell death. […] A similar finding was also clear in the treatment of HuVEC cells with KPU-2.

[10] = tested on: MES-SA (Taxol Sensitive) human uterine sarcoma; experiment: Drug resistant cell line pair, cytotoxicity (Example 10B); assay type: cell-based; conditions: Homo sapiens, MES-SA, CsA Pretreat, Studies II-III in separate lines
Text: (§1) 1) Human Uterine Sarcoma Tumor Cell Line Pair: MES-SA (Taxol Sensitive) and MES-SA/Dx5 (Taxol Resistant).

[11] = tested on: MES-SA/Dx5 (Taxol Resistant) human uterine sarcoma; experiment: as above; assay type: cell-based; conditions: Homo sapiens, MES-SA/Dx5, MES-SA/DX5 Resistant, CsA Pretreat; Studies II-III in separate lines
Text: as §1

[12] = target: CDK1/Cyclin B (human) (Homo sapiens, UniProt P06493); experiment: biochemical
[13] = tested on: MCF-7 (Taxol Sensitive) human breast carcinoma; experiment: Drug resistant cell line pair, cytotoxicity (Example 10B); assay type: cell-based; conditions: Homo sapiens, MCF7/Taxol, read-out: MCF-7 Sensitive IC50 nM
Text: (§2) 3). Human Breast Carcinoma Cell Line Pair: MCF-7 (Taxol Sensitive) and MCF-7/ADR (Taxol Resistant)

[14] = tested on: MCF-7/ADR (Taxol Resistant) human breast carcinoma; experiment: as above; assay type: cell-based; conditions: Homo sapiens, NCI/ADR-RES, read-out: MCF-7/ADR Resistant IC 50 nM
Text: as §2

[15] = target: c-RAF (human) (Homo sapiens, UniProt P04049); conditions: ATP 10 μM
[16] = tested on: bovine brain microtubule protein; experiment: Tubulin polymerization assay, turbidity (Example 21); assay type: biochemical; conditions: 5 μM in 1% DMSO
Procedure: Polymerization of bovine brain microtubule protein (Cytoskeleton, Inc., Denver, Colo.) was monitored by an increase in turbidity at 37° C. in microtubule buffer (80 mM PIPES, pH 6.8, 1 mM MgCl2, 1 mM EGTA, 1 mM GTP, 10% glycerol). […] Turbidity was measured as an increase in optical density at 340 nm with a thermo-controlled spectrophotometer (model 680XR microplate Reader™, Bio-Rad Laboratories).

[17] = tested on: Candida albicans; experiment: Antifungal susceptibility testing, broth dilution (MIC/MFC); assay type: cell-based
How it was run: (§3)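 Tested against two isolates per species (one for C. glabrata). After MIC, fungicidal concentration determined by plating 0.1 μl from MIC and each higher concentration.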

[18] = tested on: Trichophyton rubrum; experiment: as above; assay type: cell-based; conditions: Trichophyton species
How it was run: as §3

[19] = tested on: Aspergillus fumigatus; experiment: as above; assay type: cell-based
How it was run: as §3

[20] = tested on: Candida glabrata; experiment: as above; assay type: cell-based; conditions: Nakaseomyces glabratus
How it was run: as §3

Sequence of CDK1/Cyclin B (human) (P06493 whole entry): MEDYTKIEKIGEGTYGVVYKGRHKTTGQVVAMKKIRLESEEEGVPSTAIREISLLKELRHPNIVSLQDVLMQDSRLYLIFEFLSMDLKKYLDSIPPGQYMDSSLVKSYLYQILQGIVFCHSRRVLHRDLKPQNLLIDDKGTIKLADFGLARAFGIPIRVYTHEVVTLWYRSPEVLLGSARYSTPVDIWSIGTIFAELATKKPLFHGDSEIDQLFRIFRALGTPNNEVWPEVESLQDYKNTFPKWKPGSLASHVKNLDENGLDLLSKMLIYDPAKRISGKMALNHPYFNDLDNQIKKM
Sequence of CDK1/Cyclin B (human) (P14635 whole entry partner): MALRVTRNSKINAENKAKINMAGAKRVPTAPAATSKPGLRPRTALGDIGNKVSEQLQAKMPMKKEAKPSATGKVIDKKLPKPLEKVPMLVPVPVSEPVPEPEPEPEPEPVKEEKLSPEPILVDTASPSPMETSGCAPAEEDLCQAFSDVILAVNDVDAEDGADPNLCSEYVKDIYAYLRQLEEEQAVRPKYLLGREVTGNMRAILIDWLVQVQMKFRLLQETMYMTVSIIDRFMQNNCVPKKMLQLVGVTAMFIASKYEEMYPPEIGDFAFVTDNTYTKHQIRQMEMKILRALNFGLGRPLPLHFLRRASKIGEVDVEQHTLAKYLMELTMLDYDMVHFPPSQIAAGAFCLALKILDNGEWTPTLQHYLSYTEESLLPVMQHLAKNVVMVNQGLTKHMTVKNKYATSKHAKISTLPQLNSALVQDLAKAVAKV
Sequence of c-RAF (human) (P04049 whole entry): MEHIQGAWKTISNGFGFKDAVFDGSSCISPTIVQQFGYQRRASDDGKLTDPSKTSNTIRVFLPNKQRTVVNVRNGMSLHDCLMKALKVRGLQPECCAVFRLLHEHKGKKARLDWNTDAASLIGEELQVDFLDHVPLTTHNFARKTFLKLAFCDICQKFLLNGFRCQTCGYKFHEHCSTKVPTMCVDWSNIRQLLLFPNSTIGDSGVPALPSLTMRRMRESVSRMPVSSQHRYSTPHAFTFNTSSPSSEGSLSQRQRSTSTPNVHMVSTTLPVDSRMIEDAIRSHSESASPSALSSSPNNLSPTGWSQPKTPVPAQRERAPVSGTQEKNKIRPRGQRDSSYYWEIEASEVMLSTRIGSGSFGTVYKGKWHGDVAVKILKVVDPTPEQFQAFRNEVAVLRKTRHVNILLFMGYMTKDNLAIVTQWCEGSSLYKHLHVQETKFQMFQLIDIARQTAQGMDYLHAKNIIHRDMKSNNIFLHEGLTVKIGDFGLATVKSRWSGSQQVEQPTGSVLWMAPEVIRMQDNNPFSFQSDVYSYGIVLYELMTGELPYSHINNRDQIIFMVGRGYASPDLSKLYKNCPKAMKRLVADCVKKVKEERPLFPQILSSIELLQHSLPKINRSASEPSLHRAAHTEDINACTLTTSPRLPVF

For `CC(C)(C)c1[nH]cnc1/C=c1\[nH]c(=O)/c(=C/c2ccccc2)[nH]c1=O` [KPU-2, tBu-dehydro-PLH], the “kinases inhibited in the primary screen” value [1] was “Four kinases were inhibited by greater than 50%”, the IC50 ([2]; Mus musculus, P388, read-out: IC50 (nM) P-388) was 31.8 ± 5 nM and the “cytotoxicity in P388 cells” value ([2]; in words) was “exhibited cytotoxicity in P388 cells”. For the same molecule, the “microtubule depolymerization in HuVEC cells” value [3] was “induced microtubule depolymerization”, the “apparent TGI” value [4] was over 58% and the EC50 ([5]; Table 2) was 1 nM. The EC50 ([5]; Table 3) was 1 nM, the “TGI of the cotherapy group” value [6] was 74.4% and the “cleavage of PARP” value [7] was “induced cleavage of PARP”. The “concentration inducing DNA laddering” value [8] was 1 nM, the “morphological changes of apoptosis” value [9] was “induced the typical morphological changes associated with early stages of apoptosis” and the IC50 [10] was 27.4 nM. It also gave an IC50 [11] of 37.8 nM, an IC50 [12] of 10100 nM and an IC50 [13] of 39.6 nM. For the same molecule, the IC50 [14] was 27.4 nM, the IC50 [15] was 8900 nM and the tubulin polymerization [16] was “inhibit tubulin polymerization”. For the same molecule, the MIC ([17]; C. albicans 10231) was over 32 µg/mL, the MIC ([17]; Candida albicans) was over 32 µg/mL and the “antifungal potency compared with griseofulvin” value [18] was “equivalent in potency or in some cases more potent than griseofulvin”. It also gave an MIC ([19]; A. fumigatus isolate #2) of over 16 µg/mL, an MIC ([19]; Aspergillus fumigatus) of over 16 µg/mL and an MIC [20] of over 32 µg/mL.
